Test results taken from patent US6481154B1, “Method of large-scale propagation of trees of genus Swietenia” (Sumitomo Forestry Co., Ltd., priority 2000, dated 2002).

Key:
Assay type in all cases: cell-based
[1] = system: single shoots of Swietenia macrophylla; assay: Rooting condition (1): modified B5 medium for 3 months
Protocol: (§1) A large number of shoots obtained in (4) were cut to single shoots which were cultured in the following procedures:
(1) The single shoots were cultured on a modified B5 medium containing 0 to 10.0 mg/l of IBA for 3 months, while transplanting the shoots to a fresh medium of the same composition every month.
(§2) All the above (1)-(4) cultures were conducted under conditions wherein a temperature was 26±2° C., a humidity was 60 to 90% and a light intensity was 3,000 to 9,000 Lux. Further, all the modified media in the above (1)-(4) contained 2.8 g/l of gelright.

[2] = system: single shoots of Swietenia macrophylla; assay: Rooting conditions (3): modified MS, then modified B5, then modified MS, one month each; details: for Rooting rate (%) For first one month / Rooting rate (%) For second one month / Rooting rate (%) For third one month / Withering rate (%) For first one month / Withering rate (%) For second one month / Withering rate (%) For third one month: rooting conditions (3)
Protocol: as §1
(3) The single shoots were cultured on a modified MS medium containing 0 to 10.0 mg/l of IBA for one month, then on a modified B5 medium containing 0 to 10.0 mg/l of IBA for one month and further on a modified MS medium containing 0 to 10.0 mg/l of IBA for one month.
as §2

[3] = system: single shoots of Swietenia macrophylla; assay: Rooting conditions (2): modified MS medium for 3 months
Protocol: as §1
(2) The single shoots were cultured on a modified MS medium containing 0 to 10.0 mg/l of IBA for 3 months, while transplanting the shoots to a fresh medium of the same composition every month.
as §2

## O=C(O)CCCc1c[nH]c2ccccc12 [IBA, 3-indole butyric acid]
[1]; IBA 0.1 mg/l
  Rooting rate (%) For first one month: 0.0%
  Rooting rate (%) For second one month: 0.0%
  Rooting rate (%) For third one month: 0.0%
  Withering rate (%) For first one month: 84.6%
  Withering rate (%) For second one month: 100.0%
  Withering rate (%) For third one month: 100.0%
[1]; IBA 1.0 mg/l
  Rooting rate (%) For first one month: 0.0%
  Rooting rate (%) For second one month: 3.7%
  Rooting rate (%) For third one month: 3.7%
  Withering rate (%) For first one month: 14.8%
  Withering rate (%) For second one month: 55.6%
  Withering rate (%) For third one month: 96.3%
[1]; IBA 2.0 mg/l
  Rooting rate (%) For first one month: 0.0%
  Rooting rate (%) For second one month: 6.7%
  Rooting rate (%) For third one month: 6.7%
  Withering rate (%) For first one month: 13.3%
  Withering rate (%) For second one month: 40.0%
  Withering rate (%) For third one month: 73.3%
[1]; IBA 2.5 mg/l
  Rooting rate (%) For first one month: 0.0%
  Rooting rate (%) For second one month: 18.5%
  Rooting rate (%) For third one month: 18.5%
  Withering rate (%) For first one month: 11.1%
  Withering rate (%) For second one month: 40.7%
  Withering rate (%) For third one month: 66.7%
[1]; IBA 3.0 mg/l
  Rooting rate (%) For first one month: 0.0%
  Rooting rate (%) For second one month: 0.0%
  Rooting rate (%) For third one month: 0.0%
  Withering rate (%) For first one month: 26.9%
  Withering rate (%) For second one month: 57.7%
  Withering rate (%) For third one month: 73.1%
[1]; IBA 4.0 mg/l
  Rooting rate (%) For first one month: 0.0%
  Rooting rate (%) For second one month: 4.0%
  Rooting rate (%) For third one month: 4.0%
  Withering rate (%) For first one month: 40.0%
  Withering rate (%) For second one month: 72.0%
  Withering rate (%) For third one month: 100.0%
[1]; IBA 5.0 mg/l
  Rooting rate (%) For first one month: 0.0%
  Rooting rate (%) For second one month: 0.0%
  Rooting rate (%) For third one month: 0.0%
  Withering rate (%) For first one month: 53.8%
  Withering rate (%) For second one month: 84.6%
  Withering rate (%) For third one month: 100.0%
[1]; IBA 10.0 mg/l
  Rooting rate (%) For first one month: 0.0%
  Rooting rate (%) For second one month: 0.0%
  Rooting rate (%) For third one month: 0.0%
  Withering rate (%) For first one month: 80.8%
  Withering rate (%) For second one month: 96.2%
  Withering rate (%) For third one month: 100.0%
[2]; 2.5 mg/l of IBA, modified MS, modified B5, modified MS, one month each
  effectiveness versus continuous culture on a single kind of medium: more effective
[2]; 2.5 mg/l of IBA, procedure (3)
  effectiveness for rooting: particularly effective
[2]; IBA 0.1 mg/l
  Rooting rate (%) For first one month: 0.0%
  Rooting rate (%) For second one month: 0.0%
  Rooting rate (%) For third one month: 0.0%
  Withering rate (%) For first one month: 7.7%
  Withering rate (%) For second one month: 73.1%
  Withering rate (%) For third one month: 84.6%
[2]; IBA 1.0 mg/l
  Rooting rate (%) For first one month: 0.0%
  Rooting rate (%) For second one month: 10.0%
  Rooting rate (%) For third one month: 40.0%
  Withering rate (%) For first one month: 0.0%
  Withering rate (%) For second one month: 30.0%
  Withering rate (%) For third one month: 50.0%
[2]; IBA 2.0 mg/l
  Rooting rate (%) For first one month: 0.0%
  Rooting rate (%) For second one month: 10.0%
  Rooting rate (%) For third one month: 40.0%
  Withering rate (%) For first one month: 0.0%
  Withering rate (%) For second one month: 30.0%
  Withering rate (%) For third one month: 40.0%
[2]; IBA 2.5 mg/l
  Rooting rate (%) For first one month: 0.0%
  Rooting rate (%) For second one month: 40.0%
  Rooting rate (%) For third one month: 70.0%
  Withering rate (%) For first one month: 0.0%
  Withering rate (%) For second one month: 0.0%
  Withering rate (%) For third one month: 20.0%
[2]; IBA 3.0 mg/l
  Rooting rate (%) For first one month: 0.0%
  Rooting rate (%) For second one month: 10.0%
  Rooting rate (%) For third one month: 30.0%
  Withering rate (%) For first one month: 0.0%
  Withering rate (%) For second one month: 50.0%
  Withering rate (%) For third one month: 50.0%
[2]; IBA 4.0 mg/l
  Rooting rate (%) For first one month: 0.0%
  Rooting rate (%) For second one month: 0.0%
  Rooting rate (%) For third one month: 0.0%
  Withering rate (%) For first one month: 20.0%
  Withering rate (%) For second one month: 60.0%
  Withering rate (%) For third one month: 80.0%
[2]; IBA 5.0 mg/l
  Rooting rate (%) For first one month: 0.0%
  Rooting rate (%) For second one month: 0.0%
  Rooting rate (%) For third one month: 0.0%
  Withering rate (%) For first one month: 40.0%
  Withering rate (%) For second one month: 50.0%
  Withering rate (%) For third one month: 100.0%
[2]; IBA 10.0 mg/l
  Rooting rate (%) For first one month: 0.0%
  Rooting rate (%) For second one month: 0.0%
  Rooting rate (%) For third one month: 0.0%
  Withering rate (%) For first one month: 50.0%
  Withering rate (%) For second one month: 100.0%
  Withering rate (%) For third one month: 100.0%
[2]; procedure (3), 3 months after the start of culturing, 2.5 mg/l of IBA
  single shoots rooted: 70.0%
[3]; IBA 0.1 mg/l
  Rooting rate (%) For first one month: 0.0%
  Rooting rate (%) For second one month: 0.0%
  Rooting rate (%) For third one month: 0.0%
  Withering rate (%) For first one month: 0.0%
  Withering rate (%) For second one month: 69.2%
  Withering rate (%) For third one month: 84.6%
[3]; IBA 1.0 mg/l
  Rooting rate (%) For first one month: 0.0%
  Rooting rate (%) For second one month: 3.8%
  Rooting rate (%) For third one month: 3.8%
  Withering rate (%) For first one month: 0.0%
  Withering rate (%) For second one month: 46.2%
  Withering rate (%) For third one month: 73.1%
[3]; IBA 2.0 mg/l
  Rooting rate (%) For first one month: 0.0%
  Rooting rate (%) For second one month: 3.8%
  Rooting rate (%) For third one month: 11.5%
  Withering rate (%) For first one month: 0.0%
  Withering rate (%) For second one month: 30.8%
  Withering rate (%) For third one month: 76.9%
[3]; IBA 2.5 mg/l
  Rooting rate (%) For first one month: 0.0%
  Rooting rate (%) For second one month: 13.3%
  Rooting rate (%) For third one month: 16.7%
  Withering rate (%) For first one month: 0.0%
  Withering rate (%) For second one month: 26.7%
  Withering rate (%) For third one month: 66.7%
[3]; IBA 3.0 mg/l
  Rooting rate (%) For first one month: 0.0%
  Rooting rate (%) For second one month: 3.7%
  Rooting rate (%) For third one month: 11.1%
  Withering rate (%) For first one month: 0.0%
  Withering rate (%) For second one month: 55.6%
  Withering rate (%) For third one month: 70.4%
[3]; IBA 4.0 mg/l
  Rooting rate (%) For first one month: 0.0%
  Rooting rate (%) For second one month: 0.0%
  Rooting rate (%) For third one month: 0.0%
  Withering rate (%) For first one month: 10.3%
  Withering rate (%) For second one month: 58.6%
  Withering rate (%) For third one month: 96.6%
[3]; IBA 5.0 mg/l
  Rooting rate (%) For first one month: 0.0%
  Rooting rate (%) For second one month: 0.0%
  Rooting rate (%) For third one month: 0.0%
  Withering rate (%) For first one month: 46.2%
  Withering rate (%) For second one month: 76.9%
  Withering rate (%) For third one month: 100.0%
[3]; IBA 10.0 mg/l
  Rooting rate (%) For first one month: 0.0%
  Rooting rate (%) For second one month: 0.0%
  Rooting rate (%) For third one month: 0.0%
  Withering rate (%) For first one month: 65.4%
  Withering rate (%) For second one month: 80.8%
  Withering rate (%) For third one month: 100.0%
